Results taken from patent US20230286958A1, “PLASMA KALLIKREIN INHIBITORS” (Merck Sharp & Dohme LLC, priority 2020, published 2023).

Experiments:
Human plasma kallikrein = Human plasma kallikrein (Homo sapiens (Human), UniProt P03952); test: Kallikrein Assay (fluorogenic substrate Acetyl-K-P-R-AFC); format: biochemical; details: Plasma Kallikrein (PKal)
Procedure, shortened: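 Ki is derived from IC50 with the Cheng-Prusoff equation, and IC50 from the inflection point of a four-parameter logistic curve. The rate of AFC release is read with 0.5 nM purified enzyme and […] substrate at room temperature or 37 °C.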

human Factor XIa = human Factor XIa (Homo sapiens (Human), UniProt P03951); test: Factor XIa Assay (fluorogenic substrate GPR-AFC); format: biochemical; details: Factor XIa (FXIa)
human Factor XIa, sequence (P03951 388-625 limits assumed): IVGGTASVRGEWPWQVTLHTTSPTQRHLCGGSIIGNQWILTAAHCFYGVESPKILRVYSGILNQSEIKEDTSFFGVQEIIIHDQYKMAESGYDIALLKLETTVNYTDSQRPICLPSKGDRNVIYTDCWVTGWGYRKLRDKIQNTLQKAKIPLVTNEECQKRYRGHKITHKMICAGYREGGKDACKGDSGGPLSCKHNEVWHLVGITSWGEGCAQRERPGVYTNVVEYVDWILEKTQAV
human Factor XIa, sequence (P03951 19-387 partner limits assumed): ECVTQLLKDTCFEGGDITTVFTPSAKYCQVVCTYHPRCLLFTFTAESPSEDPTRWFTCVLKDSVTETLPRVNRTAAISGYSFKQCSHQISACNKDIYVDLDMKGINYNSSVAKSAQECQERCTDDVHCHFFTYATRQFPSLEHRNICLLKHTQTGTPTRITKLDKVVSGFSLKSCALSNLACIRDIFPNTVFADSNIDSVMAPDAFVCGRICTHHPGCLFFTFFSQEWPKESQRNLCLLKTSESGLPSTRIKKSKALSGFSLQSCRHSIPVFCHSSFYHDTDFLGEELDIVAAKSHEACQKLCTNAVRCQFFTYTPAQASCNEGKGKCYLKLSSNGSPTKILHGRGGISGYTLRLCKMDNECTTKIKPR

Human plasma kallikrein, sequence (P03952 391-638): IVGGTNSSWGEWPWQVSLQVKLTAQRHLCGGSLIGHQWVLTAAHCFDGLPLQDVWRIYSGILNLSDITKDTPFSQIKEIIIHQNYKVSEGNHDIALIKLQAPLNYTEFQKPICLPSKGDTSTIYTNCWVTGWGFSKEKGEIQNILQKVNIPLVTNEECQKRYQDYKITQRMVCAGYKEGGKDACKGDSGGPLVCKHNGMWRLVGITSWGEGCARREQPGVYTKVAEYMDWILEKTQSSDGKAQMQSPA
Human plasma kallikrein, sequence (P03952 20-390 partner): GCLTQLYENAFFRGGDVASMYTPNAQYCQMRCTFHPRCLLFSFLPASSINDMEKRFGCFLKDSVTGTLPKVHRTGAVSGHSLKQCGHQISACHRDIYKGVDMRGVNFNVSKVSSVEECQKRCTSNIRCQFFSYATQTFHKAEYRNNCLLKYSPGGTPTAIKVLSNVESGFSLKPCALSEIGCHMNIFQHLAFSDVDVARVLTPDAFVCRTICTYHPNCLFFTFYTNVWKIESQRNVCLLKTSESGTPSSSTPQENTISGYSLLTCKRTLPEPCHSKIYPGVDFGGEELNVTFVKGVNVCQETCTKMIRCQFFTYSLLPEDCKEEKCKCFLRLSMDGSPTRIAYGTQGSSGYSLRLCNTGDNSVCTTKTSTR

| SMILES | IC50 (Human plasma kallikrein) [nM] | IC50 (human Factor XIa) [nM] |
| --- | --- | --- |
| Cc1cc([C@H](C)n2cc(NC(=O)c3cncc(-c4c(C(F)F)ccc(Cl)c4F)n3)cn2)nnc1N1C[C@H]2C[C@H]2C1=O [Example 37, 6-(3-Chloro-6-(difluoromethyl)-2-fluorophenyl)-N-(1-((S)-1-(5-methyl-6-((1R,5S)-2-oxo-3-azabicyclo[3.1.0]hexan-3-yl)pyridazin-3-yl)ethyl)-1H-pyrazol-4-yl)pyrazine-2-carboxamide] | 1.2 | 1270 |
| Cc1nc(Cn2cc(NC(=O)c3nc(-c4c(C(F)F)ccc(Cl)c4F)cnc3C)cn2)ccc1N1C[C@H]2C[C@H]2C1=O [Example 63, 6-(3-Chloro-6-(difluoromethyl)-2-fluorophenyl)-3-methyl-N-(1-((6-methyl-5-((1R,SS)-2-oxo-3-azabicyclo[3.1.0]hexan-3-yl)pyridin-2-yl)methyl)-1H-pyrazol-4-yl)pyrazine-2-carboxamide] | 1.7 | > 10000 |
| CC(c1cnc(N2C[C@H]3C[C@H]3C2=O)c2c1OC(F)(F)O2)n1cc(NC(=O)c2cncc(-c3c(C(F)F)ccc(Cl)c3F)n2)cn1 (single isomer, unassigned) [Example 249, 6-(3-Chloro-6-(difluoromethyl)-2-fluorophenyl)-N-(1-((S or R)-1-(2,2-difluoro-4-((1R,5S)-2-oxo-3-azabicyclo[3.1.0]hexan-3-yl)-[1,3]dioxolo[4,5-c]pyridin-7-yl)ethyl)-1H-pyrazol-4-yl)pyrazine-2-carboxamide] | 2.1 | > 10000 |
| Cc1ncc(-c2c(C(F)F)ccc(Cl)c2F)nc1C(=O)Nc1cnn(C(C)c2cnc(N3C[C@H]4C[C@H]4C3=O)c(NC(=O)OC(C)(C)C)c2)c1 (mixture of isomers) [Example 96, tert-Butyl (5-((S and R)-1-(4-(6-(3-chloro-6-(difluoromethyl)-2-fluorophenyl)-3-methylpyrazine-2-carboxamido)-1H-pyrazol-1-yl)ethyl)-2-((1R,5S)-2-oxo-3-azabicyclo[3.1.0]hexan-3-yl)pyridin-3-yl)carbamate] | 10.8 | 3950 |
| Cc1ncc(-c2c(C(F)F)ccc(Cl)c2F)nc1C(=O)Nc1cnn(Cc2cnc(N3C[C@H]4C[C@H]4C3=O)c(F)c2)c1 [Example 82, 6-(3-Chloro-6-(difluoromethyl)-2-fluorophenyl)-N-(1-((5-fluoro-6-((1R,5S)-2-oxo-3-azabicyclo[3.1.0]hexan-3-yl)pyridin-3-yl)methyl)-1H-pyrazol-4-yl)-3-methylpyrazine-2-carboxamide] | 1.8 | 935 |
| Cc1cc([C@@H](C)n2cc(NC(=O)c3nc(-c4c(OC(F)F)ccc(Cl)c4F)cnc3C)cn2)nnc1N1C[C@H]2C[C@H]2C1=O [Example 40, 6-(3-Chloro-6-(difluoromethoxy)-2-fluorophenyl)-3-methyl-N-(1-((R)-1-(5-methyl-6-((1R,5S)-2-oxo-3-azabicyclo[3.1.0]hexan-3-yl)pyridazin-3-yl)ethyl)-1H-pyrazol-4-yl)pyrazine-2-carboxamide] | 1.8 | 255 |
| Cc1ncc(-c2c(C(F)F)ccc(Cl)c2F)nc1C(=O)Nc1cn(Cc2cnc(N3C[C@H]4C[C@H]4C3=O)c(C)n2)nn1 [Example 185, 6-(3-Chloro-6-(difluoromethyl)-2-fluorophenyl)-3-methyl-N-(1-((6-methyl-5-((1R,5S)-2-oxo-3-azabicyclo[3.1.0]hexan-3-yl)pyrazin-2-yl)methyl)-1H-1,2,3-triazol-4-yl)pyrazine-2-carboxamide] | 2.4 | 3180 |
| Cc1nc(C(C)n2cc(NC(=O)c3cncc(-c4c(C(F)(F)F)ccc(Cl)c4F)n3)cn2)cnc1N1C[C@H]2C[C@H]2C1=O (single isomer, unassigned) [Example 18] | 19.5 | 4080 |
| Cc1nc(C(C)n2cc(NC(=O)c3cncc(-c4c(C(F)F)ccc(Cl)c4F)n3)cn2)ncc1N1C[C@H]2C[C@H]2C1=O (single isomer, unassigned) [Example 4, 6-(3-Chloro-6-(difluoromethyl)-2-fluorophenyl)-N-(1-((R or S)-1-(4-methyl-5-((1R,5S)-2-oxo-3-azabicyclo[3.1.0]hexan-3-yl)pyrimidin-2-yl)ethyl)-1H-pyrazol-4-yl)pyrazine-2-carboxamide] | 16.8 | > 10000 |
| Cc1nc(N2C[C@H]3C[C@H]3C2=O)ncc1C(C)n1cc(NC(=O)c2nc(-c3c(C(F)F)ccc(Cl)c3F)cc(=O)n2C)cn1 (single isomer, unassigned) [Example 79, 4-(3-Chloro-6-(difluoromethyl)-2-fluorophenyl)-1-methyl-N-(1-((S or R)-1-(4-methyl-2-((1R,5S)-2-oxo-3-azabicyclo[3.1.0]hexan-3-yl)pyrimidin-5-yl)ethyl)-1H-pyrazol-4-yl)-6-oxo-1,6-dihydropyrimidine-2-carboxamide] | 0.5 | 57 |
| Cc1cc(C(C)n2cc(NC(=O)c3nc(-c4c(OC(F)F)ccc(Cl)c4F)cnc3C)cn2)cnc1N1C[C@H]2C[C@H]2C1=O (single isomer, unassigned) [Example 132, 6-(3-Chloro-6-(difluoromethoxy)-2-fluorophenyl)-3-methyl-N-(1-((R or S)-1-(5-methyl-6-((1R,5S)-2-oxo-3-azabicyclo[3.1.0]hexan-3-yl)pyridin-3-yl)ethyl)-1H-pyrazol-4-yl)pyrazine-2-carboxamide] | 0.6 | 139 |
| Cc1ncc(-c2c(C(F)F)ccc(Cl)c2F)nc1C(=O)Nc1cnn(C(C)c2cnc(N3C[C@H]4C[C@H]4C3=O)c(Cl)c2)c1 (stereo partly drawn) [Example 91, N-(1-((S)-1-(5-chloro-6-((1R,5S)-2-oxo-3-azabicyclo[3.1.0]hexan-3-yl)pyridin-3-yl)ethyl)-1H-pyrazol-4-yl)-6-(3-chloro-6-(difluoromethyl)-2-fluorophenyl)-3-methylpyrazine-2-carboxamide] | 1.3 | 2580 |
| Cc1ncc(-c2c(C(F)F)ccc(Cl)c2F)nc1C(=O)Nc1cnn(C(C)c2ccc(N3CC4CC4C3=O)nc2)c1 (single isomer, unassigned) [Example 74, 6-(3-Chloro-6-(difluoromethyl)-2-fluorophenyl)-3-methyl-N-(1-((S or R)-1-(6-((1R,5S or 1S,5R)-2-oxo-3-azabicyclo[3.1.0]hexan-3-yl)pyridin-3-yl)ethyl)-1H-pyrazol-4-yl)pyrazine-2-carboxamide] | 14.6 | 7600 |
| Cc1nc(N2C[C@@H]3C[C@@H]3C2=O)ncc1[C@@H](CO)n1cc(NC(=O)c2cncc(-c3c(C(F)F)ccc(Cl)c3F)n2)cn1 [Example 157, 6-(3-Chloro-6-(difluoromethyl)-2-fluorophenyl)-N-(1-((S)-2-hydroxy-1-(4-methyl-2-((1S,5R)-2-oxo-3-azabicyclo[3.1.0]hexan-3-yl)pyrimidin-5-yl)ethyl)-1H-pyrazol-4-yl)pyrazine-2-carboxamide] | 1020 | > 10000 |
| Cc1c(C(C)n2cc(NC(=O)c3nc(-c4c(C(F)F)ccc(Cl)c4F)cnc3CO)cn2)cnc(N2C[C@H]3C[C@H]3C2=O)c1C (single isomer, unassigned) [Example 201, 6-(3-Chloro-6-(difluoromethyl)-2-fluorophenyl)-N-(1-((S or R)-1-(4,5-dimethyl-6-((1R,5S)-2-oxo-3-azabicyclo[3.1.0]hexan-3-yl)pyridin-3-yl)ethyl)-1H-pyrazol-4-yl)-3-(hydroxymethyl)pyrazine-2-carboxamide] | 0.4 | 52 |
| Cc1cc(C(C)n2cc(NC(=O)c3cc(-c4c(C(F)F)ccc(Cl)c4F)c[n+]([O-])c3)cn2)cnc1N1C[C@H]2C[C@H]2C1=O (single isomer, unassigned) [Example 107, 5-(3-Chloro-6-(difluoromethyl)-2-fluorophenyl)-N-(1-((R or S)-1-(5-methyl-6-((1R,5S)-2-oxo-3-azabicyclo[3.1.0]hexan-3-yl)pyridin-3-yl)ethyl)-1H-pyrazol-4-yl)-1-(l1-oxidanyl)-114-pyridine-3-carboxamide] | 1.5 | 260 |
| Cc1ncc(-c2c(C(F)F)ccc(Cl)c2F)nc1C(=O)Nc1cnn(C2(c3cnc(N4C[C@H]5C[C@H]5C4=O)c(C)n3)CC2)c1 [Example 220, 6-(3-Chloro-6-(difluoromethyl)-2-fluorophenyl)-3-methyl-N-(1-(1-(6-methyl-5-((1R,5S)-2-oxo-3-azabicyclo[3.1.0]hexan-3-yl)pyrazin-2-yl)cyclopropyl)-1H-pyrazol-4-yl)pyrazine-2-carboxamide] | 7.8 | > 10000 |
| Cc1cc(C(C)n2cc(NC(=O)c3nc(-c4c(C#N)ccc(Cl)c4F)cnc3C)cn2)nnc1N1C[C@H]2C[C@H]2C1=O (single isomer, unassigned) [Example 237, 6-(3-Chloro-6-cyano-2-fluorophenyl)-3-methyl-N-(1-((S or R)-1-(5-methyl-6-((1R,5S)-2-oxo-3-azabicyclo[3.1.0]hexan-3-yl)pyridazin-3-yl)ethyl)-1H-pyrazol-4-yl)pyrazine-2-carboxamide] | 4.3 | 561 |
